Test results from ChEMBL document CHEMBL4229452, “Expanding chemical space of DNA-binding molecules with three base-binding units” (Bioorg Med Chem Lett, 2018).
Activity calls are given as the source filed them. No cut-off for these calls is given here.

Assays:
Assay type in all cases: nucleic-acid assay
dsDNA [1] = assay: Binding affinity to 5'-(CTAA CGA AATG)-3'/5'-(CATT GGT TTAG)-3' duplex DNA (unknown origin) assessed as melting temperature at 5 uM by fluorimetric method
dsDNA [2] = assay: Binding affinity to 5'-(CTAA GGC AATG)-3'/5'-(CATT CGG TTAG)-3' duplex DNA (unknown origin) assessed as melting temperature at 5 uM by fluorimetric method
dsDNA [3] = assay: Binding affinity to 5'-(CTAA CGG AATG)-3'/5'-(CATT CGG TTAG)-3' duplex DNA (unknown origin) at 7.5 uM by fluorescence titration method
dsDNA [4] = assay: Binding affinity to 5'-(CTAA GGC AATG)-3'/5'-(CATT GGC TTAG)-3' duplex DNA (unknown origin) assessed as change in melting temperature at 20 uM by UV-spectrophotometric method
dsDNA [5] = assay: Binding affinity to 5'-(CTAA GGC AATG)-3'/5'-(CATT GGC TTAG)-3' duplex DNA (unknown origin) at 7.5 uM by fluorescence titration method
dsDNA [6] = assay: Binding affinity to 5'-(CTAA GGT AATG)-3'/5'-(CATT CGA TTAG)-3' duplex DNA (unknown origin) assessed as melting temperature at 5 uM by fluorimetric method
dsDNA [7] = assay: Binding affinity to 5'-(CTAA GGA AATG)-3'/5'-(CATT CGT TTAG)-3' duplex DNA (unknown origin) assessed as melting temperature at 5 uM by fluorimetric method
dsDNA [8] = assay: Binding affinity to 5'-(CTAA CGG AATG)-3'/5'-(CATT CGG TTAG)-3' duplex DNA (unknown origin) assessed as apparent association […] constant at 60 uM by isothermal titration calorimetric method
dsDNA [9] = assay: Binding affinity to 5'-(CTAA CGG AATG)-3'/5'-(CATT CGG TTAG)-3' duplex DNA (unknown origin) assessed as change in melting temperature at 20 uM by UV-spectrophotometric method
dsDNA [10] = assay: Binding affinity to 5'-(CTAA CGT AATG)-3'/5'-(CATT GGA TTAG)-3' duplex DNA (unknown origin) assessed as melting temperature at 5 uM by fluorimetric method
dsDNA [11] = assay: Binding affinity to 5'-(CTAA CGG AATG)-3'/5'-(CATT GGC TTAG)-3' duplex DNA (unknown origin) assessed as melting temperature at 5 uM by fluorimetric method
dsDNA [12] = assay: Binding affinity to 5'-(CTAA GGC AATG)-3'/5'-(CATT GGC TTAG)-3' duplex DNA (unknown origin) at < 10 uM by fluorescence titration method
dsDNA [13] = assay: Binding affinity to 5'-(CTAA CGG AATG)-3'/5'-(CATT CGG TTAG)-3' duplex DNA (unknown origin) at < 10 uM by fluorescence titration method

Tm (dsDNA [1]) [°C]	Tm (dsDNA [2]) [°C]	Activity (dsDNA [3])	ΔTm (dsDNA [4]) [°C]	Activity (dsDNA [5])	Tm (dsDNA [6]) [°C]	Tm (dsDNA [7]) [°C]	Activity (dsDNA [8])	ΔTm (dsDNA [9]) [°C]	Tm (dsDNA [10]) [°C]	Tm (dsDNA [11]) [°C]	Activity (dsDNA [12])	Activity (dsDNA [13])	Ka (dsDNA [8]) [×10⁷ /M]	SMILES
24.1	34.7	Active	1.6	Active	27.1	26.7	inactive	22.9	24.9	26.5	–	–	–	Cc1ccc2ccc(NC(=O)OCCCN(CCCOC(=O)Nc3ccc4ccc(C)nc4n3)CCCOC(=O)Nc3ccc4ccc(C)nc4n3)nc2n1
–	–	–	2	–	–	–	–	23	–	–	Active	Active	2.09	Cc1ccc2ccc(NC(=O)OCCCNCCCOC(=O)Nc3ccc4ccc(C)nc4n3)nc2n1
